Measurements from patent publication US9216956B2, “Deuterium-enriched 4-hydroxy-5-methoxy-N,1-dimethyl-2-oxo-N-[(4-trifluoro-methyl)phenyl]-1,2-dihydroquinoline-3-carboxamide” (ACTIVE BIOTECH AB, priority 2011, dated 2015).

Assays:
[1] = test system: AhR (Aryl hydrocarbon Receptor) mediated induction of CYP1A1; test: TV-cell assay: luciferase gene reporter assay for AhR mediated induction of CYP1A1 in TV101L (HepG2) cells; format: cell-based, human; conditions: TV-cell assay
Method: (§1) ABR-215050 was tested with respect to its CYP1A inducing capability in vitro in a TV-cell assay. This assay is a luciferase gene reporter assay developed for the measurement of AhR (Aryl hydrocarbon Receptor) mediated induction of CYP1A. Human CYP1A promoters and 5′-flanking sequences were cloned into firefly luciferase expression vectors and stably integrated into the human hepatoma cell line, HepG2 (9). The isolated cell line was renamed TV101L.
(§2) The mechanism for transcription of CYP1A1 involves the binding of the inducer to the Ah receptor followed by a translocation of the ligand-Ah-receptor complex to the nucleus, where it binds to specific enhancer sequences in the 5′-flanking region of the CYP1A1 gene. These sequences are referred to as xenobiotic responsive elements (XREs).
(§3) A luciferase gene reporter assay was used for the measurement of AhR mediated induction of CYP1A1. Human CYP1A1 promoters and 5′-flanking sequences were cloned into firefly luciferase expression vectors and stably integrated into the human hepatoma cell line, HepG2 (8). The isolated cell line was renamed TV101L.
(§4) The cells were seeded in 96 well tissue culture plates 24-48 hours prior to treatment with the test compound. After the addition of ABR-215050 at a concentration of 1, 10 and 100 μM, the cells were further incubated for 12-24 hours. The cells were harvested by the addition of lysis buffer followed by a freezing/thawing cycle. An enzymatic assay was used for the determination of luciferase activity.
(§5) The same assay as used for ABR-215050 was used. The concentrations of ABR-215691 that were used and the results obtained, expressed as fold induction of luciferase expression, are shown in Table 4 and in FIG. 1.

Water solubility = format: physicochemical
Source text: The water solubility of ABR-215050 and of its metabolites also was investigated. It is a well-known fact that metabolism in general aims to transform compounds to more water soluble entities (10), which mostly decreases toxicity but also facilitates renal elimination. […]

[2] = test system: CYP1A1 (AhR mediated induction); test: TV-cell assay: luciferase gene reporter assay for AhR mediated induction of CYP1A1 in TV101L (HepG2) cells; format: cell-based, human; conditions: human, TV101L cells, read-out: Fold induction of luciferase expression
Method: as §1, §2, §3, §4, §5

| CYP1A induction (in words) [1] | water solubility (in words) (Water solubility) | fold induction at 0.01 µM ([2]; 0.01 μM) | fold induction at 0.1 µM ([2]; 0.1 μM) | fold induction at 1 µM ([2]; 1 μM, 12-24 hours) | solubility (Water solubility; water, pH 7, aqueous buffer) [µg/mL] | SMILES |
| --- | --- | --- | --- | --- | --- | --- |
| not to induce CYP1A | highly water soluble |  |  |  |  | CN(C(=O)c1c(O)c2c(O)cccc2n(C)c1=O)c1ccc(C(F)(F)F)cc1 [ABR-222097] |
| not to induce CYP1A | highly water soluble |  |  |  |  | COc1cccc2[nH]c(=O)c(C(=O)N(C)c3ccc(C(F)(F)F)cc3)c(O)c12 [ABR-219694] |
| substantial CYP1A inducing capacity | extremely low water solubility | 15.1 | 14.9 | 21.3 | < 0.01 | COc1cccc2c1c(O)c(C(=O)Nc1ccc(C(F)(F)F)cc1)c(=O)n2C [ABR-215691] |
